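Protocol summary: plate cells (96-well), add compound at 5 concentrations, incubate 48 h, interpolate endpoints linearly. GI50 marks 50% less growth. TGI is the concentration that stops growth completely.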
Assays:
Assay in all cases: NCI anticancer screen, dose series, 48 h
OVCAR-3 ovarian = system: OVCAR-3 ovarian
BT-549 breast = system: BT-549 breast
MALME-3M melanoma = system: MALME-3M melanoma
NCI-H23 lung = system: NCI-H23 lung
HL-60(TB) leukemia = system: HL-60(TB) leukemia
T-47D breast = system: T-47D breast
NCI-H226 lung = system: NCI-H226 lung
RPMI-8226 leukemia = system: RPMI-8226 leukemia
UACC-62 melanoma = system: UACC-62 melanoma
LOX IMVI melanoma = system: LOX IMVI melanoma
TK-10 renal = system: TK-10 renal
MOLT-4 leukemia = system: MOLT-4 leukemia
SNB-19 CNS = system: SNB-19 CNS
M14 melanoma = system: M14 melanoma
MDA-MB-435 = system: MDA-MB-435
ACHN renal = system: ACHN renal
SF-539 CNS = system: SF-539 CNS
MDA-MB-231 breast = system: MDA-MB-231 breast
EKVX NSCLC = system: EKVX NSCLC
OVCAR-8 ovarian = system: OVCAR-8 ovarian
COLO 205 colon = system: COLO 205 colon
NCI/ADR-RES ovarian = system: NCI/ADR-RES ovarian
A549 NSCLC = system: A549 NSCLC
SW-620 colon = system: SW-620 colon
SK-OV-3 ovarian = system: SK-OV-3 ovarian
HS 578T breast = system: HS 578T breast
UO-31 renal = system: UO-31 renal
PC-3 prostate = system: PC-3 prostate
KM12 colon = system: KM12 colon
U251 CNS = system: U251 CNS
DU-145 prostate = system: DU-145 prostate
HOP-62 NSCLC = system: HOP-62 NSCLC
SN12C renal = system: SN12C renal
HCT-116 colon = system: HCT-116 colon
UACC-257 melanoma = system: UACC-257 melanoma
SK-MEL-5 melanoma = system: SK-MEL-5 melanoma
SK-MEL-2 melanoma = system: SK-MEL-2 melanoma
OVCAR-4 ovarian = system: OVCAR-4 ovarian
IGROV1 ovarian = system: IGROV1 ovarian
HCT-15 colon = system: HCT-15 colon
K-562 leukemia = system: K-562 leukemia
786-0 renal = system: 786-0 renal
SK-MEL-28 melanoma = system: SK-MEL-28 melanoma
NCI-H460 lung = system: NCI-H460 lung
MCF7 breast = system: MCF7 breast
SR leukemia = system: SR leukemia
SF-268 CNS = system: SF-268 CNS
RXF 393 renal = system: RXF 393 renal
CAKI-1 renal = system: CAKI-1 renal
OVCAR-5 ovarian = system: OVCAR-5 ovarian
A498 renal = system: A498 renal
HT29 colon = system: HT29 colon
HOP-92 NSCLC = system: HOP-92 NSCLC
SF-295 CNS = system: SF-295 CNS
CCRF-CEM leukemia = system: CCRF-CEM leukemia
SNB-75 CNS = system: SNB-75 CNS

## O=[N+]([O-])c1ccc(C(Br)c2ccc([N+](=O)[O-])cc2)cc1
OVCAR-3 ovarian
  GI50: 11.7 µM
  TGI: 24.3 µM
BT-549 breast
  GI50: 15.8 µM
  TGI: 30.7 µM
MALME-3M melanoma
  GI50: 2.06 µM
  TGI: 5.12 µM
NCI-H23 lung
  GI50: 2.12 µM
  TGI: 7.14 µM
HL-60(TB) leukemia
  GI50: 8.58 µM
  TGI: 25.6 µM
T-47D breast
  GI50: 1.69 µM
  TGI: 5.13 µM
NCI-H226 lung
  GI50: 5.29 µM
  TGI: 23.7 µM
RPMI-8226 leukemia
  GI50: 2.35 µM
  TGI: 6.75 µM
UACC-62 melanoma
  GI50: 5.11 µM
  TGI: 22 µM
LOX IMVI melanoma
  GI50: 1.65 µM
  TGI: 3.23 µM
TK-10 renal
  GI50: 3.01 µM
  TGI: 10.4 µM
MOLT-4 leukemia
  GI50: 2.56 µM
  TGI: 6.15 µM
SNB-19 CNS
  GI50: 15 µM
  TGI: 33.2 µM
M14 melanoma
  GI50: 1.91 µM
  TGI: 4.2 µM
MDA-MB-435
  GI50: 3.44 µM
  TGI: 13.5 µM
ACHN renal
  GI50: 11.6 µM
  TGI: 26.5 µM
SF-539 CNS
  GI50: 15.1 µM
  TGI: 31.1 µM
MDA-MB-231 breast
  GI50: 9.54 µM
  TGI: 25.2 µM
EKVX NSCLC
  GI50: 14 µM
  TGI: 28.7 µM
OVCAR-8 ovarian
  GI50: 2.72 µM
  TGI: 8.4 µM
COLO 205 colon
  GI50: 11.1 µM
  TGI: 24 µM
NCI/ADR-RES ovarian
  GI50: 2.37 µM
  TGI: 6.82 µM
A549 NSCLC
  GI50: 11.1 µM
  TGI: 26.5 µM
SW-620 colon
  GI50: 2.89 µM
  TGI: 12 µM
SK-OV-3 ovarian
  GI50: 11 µM
  TGI: 23 µM
HS 578T breast
  GI50: 17.9 µM
  TGI: 53.7 µM
UO-31 renal
  GI50: 1.68 µM
  TGI: 5.34 µM
PC-3 prostate
  GI50: 3.34 µM
  TGI: 13.5 µM
KM12 colon
  GI50: 5.09 µM
  TGI: 18.4 µM
U251 CNS
  GI50: 2.31 µM
  TGI: 6.16 µM
DU-145 prostate
  GI50: 15.1 µM
  TGI: 28.6 µM
HOP-62 NSCLC
  GI50: 12.5 µM
  TGI: 25.9 µM
SN12C renal
  GI50: 3.07 µM
  TGI: 11 µM
HCT-116 colon
  GI50: 1.48 µM
  TGI: 4.06 µM
UACC-257 melanoma
  GI50: 10.2 µM
  TGI: 24.1 µM
SK-MEL-5 melanoma
  GI50: 2.04 µM
  TGI: 4.9 µM
SK-MEL-2 melanoma
  GI50: 4 µM
  TGI: 17.2 µM
OVCAR-4 ovarian
  GI50: 2.02 µM
  TGI: 4.85 µM
IGROV1 ovarian
  GI50: 1.37 µM
  TGI: 3.17 µM
HCT-15 colon
  GI50: 1.67 µM
  TGI: 5.26 µM
K-562 leukemia
  GI50: 3.12 µM
  TGI: 10.5 µM
786-0 renal
  GI50: 9.88 µM
  TGI: 26 µM
SK-MEL-28 melanoma
  GI50: 16.6 µM
  TGI: 30.5 µM
NCI-H460 lung
  GI50: 16.3 µM
  TGI: 40.2 µM
MCF7 breast
  GI50: 4.07 µM
  TGI: 18.1 µM
SR leukemia
  GI50: 2.36 µM
  TGI: 6.73 µM
SF-268 CNS
  GI50: 4.35 µM
  TGI: 17.7 µM
RXF 393 renal
  GI50: 12.9 µM
  TGI: 26.1 µM
CAKI-1 renal
  GI50: 2.11 µM
  TGI: 4.91 µM
OVCAR-5 ovarian
  GI50: 17 µM
  TGI: 34.3 µM
A498 renal
  GI50: 6.06 µM
  TGI: 23.5 µM
HT29 colon
  GI50: 1.63 µM
  TGI: 5.2 µM
HOP-92 NSCLC
  GI50: 2.01 µM
  TGI: 4.99 µM
SF-295 CNS
  GI50: 13.9 µM
  TGI: 28.9 µM
CCRF-CEM leukemia
  GI50: 2.11 µM
  TGI: 5.98 µM
SNB-75 CNS
  GI50: 12.2 µM
  TGI: 24.7 µM

From PubChem BioAssay (NCI)
